Series [1] deals with human foreskin microvascular endothelial cells. The experiment in a line: Cell adhesion assay of human foreskin microvascular endothelial cells on protein-coated wells. The series is classed as cell-based. How it is done:
The TRAIL and its variant protein are coated on a 96-well PVC plate overnight at 4° C. The coated 96-well plate was rinsed with 0.9% physiological saline, and then blocked for 1 h at 1640 culture medium containing 2% bovine serum albumin, and then rinsed again. After the human foreskin microvascular endothelial cells were digested, washed three times with phosphate buffer and re-suspended into the complete RPMI1640 medium, it was then added to the 96-well plate coated with TRAIL and its variant (40,000 cell per well). After the cells were incubated for 1.5 hours in an incubator containing 5% carbon dioxide, they were washed three times with physiological saline to remove the non-adherent cells. The adherent cells were fixed for 30 min with phosphate buffer solution (pH 7.3) containing 4% formalin and 2% sucrose, and then stained with 0.5% crystal violet. The fixed stained cells were rinsed several times, then dissolved with […] DMSO to test the absorbance values at 540 nm. All the tests should be carried out at least three times independently.

For series [2] the test system is unchanged. Briefly: Binding assay of fluorescein-labeled TRAIL and its variant with endothelial cells (flow cytometer). The settings on record: fluorescein-labeled protein, flow cytometry. How it is done: The TRAIL and its variant were labeled with fluorescein (Sigma company), and the labeled proteins were separated from free fluorescein through a Sephadex-G25 size exclusion column. After human foreskin microvascular endothelial cells were digested by trypsin, washed twice with ice-cold phosphate buffer containing 2% fetal calf serum, and then re-suspended, they were added with 1 μg of labeled protein for incubation for 1 h at 4° C. The fluorescent-labeled bovine serum albumin was used as a control of the test. After being washed three times, the binding capacity of the stained cells was analyzed with a flow cytometer (Becton Dickinson Company).

Series [3] has as its system COLO-205 colon cancer cells. Briefly: Cell apoptosis, Annexin V and PI double staining, COLO-205. It counts as cell-based. How it is done: (§1) After the cells treated with TRAIL and its variant were digested with trypsin, they were removed from the cultivation plate, washed twice with phosphate buffer solution, and centrifuged for 5 min at 300 g centrifugal force. The supernatants were removed, and the cells were re-suspended in 100 ul of binding buffer solution. Then, Annexin V-FITC (BD Pharmgen) was added until a final concentration of 2 μg/ml was achieved, followed by incubation at room temperature. After 10 min, 400 ul of binding buffer was added, and the cells were transferred to a flow analysis tube. 1 μg of […] (Sigma Corporation) was added to each tube. The cells were analyzed with a flow cytometer within 30 min. At least three separate tests should be carried out for each cell line.

The subject of another series is Jurkat T lymphoma cells. Briefly: Cell apoptosis, Annexin V and PI double staining, Jurkat. The series is classed as cell-based. The method, then: as §1
Series [4] deals with MDA-MB-231 breast cancer cells. The experiment in a line: Cell apoptosis, Annexin V and PI double staining, MDA-MB-231. The series is classed as cell-based. How it is done:
as §1

In series [5] the test system is normal human foreskin microvascular endothelial cells. Briefly: Cell toxicity on normal endothelial cells. The series is classed as cell-based. The settings on record: 300 ng/ml, 24 hours. The method, then: (§2) Different from the tumor cells, the normal human foreskin microvascular endothelial cells, 293T kidney cells and primary liver cells were treated with 300 ng/ml of the TRAIL variants or TRAIL for 24 hours.

In another series the test system is 293T kidney cells. The experiment in a line: Cell toxicity on 293T kidney cells. The series is classed as cell-based. The settings on record: 300 ng/ml, 24 hours. The method, then:
as §2

Another series has as its system primary liver cells. The experiment in a line: Cell toxicity on primary liver cells. It counts as cell-based. The settings on record: 300 ng/ml, 24 hours. How it is done: as §2
The subject of series [6] is COLO-205 colon cancer cells. Briefly: Anti-tumor efficacy on COLO-205 colon cancer model. It counts as in vivo, nude mice. The method, then:
(§3) 5-6 week-old female nude mice were purchased from Shanghai Experimental Animal Center. The nude mice were injected through their tail veins with 100 μg of a specific antibody, i.e., purified Asialo GM-1 antibody (Wako Chemicals Inc., Japan) that blocks natural killer cells. After 24 hours, the upper right sides of the back of the nude mice were inoculated subcutaneously with 100,000 COLO-205 or HT-29 colon cancer cells. When the tumors reached 70 mm3, random grouping and treatment began. The recombinant TRAIL and its variant proteins were administered intraperitoneally, once daily for 10-14 days. The water-soluble camptothecin CPT-11 (11-hydroxy-camptothecin; Product Name: Irinotecan Hydrochloride Injection; Pharmacia/Upjohn Company's product) was administered intravenously once a week, two times in total. The recombinant proteins and camptothecin were diluted with a phosphate buffer. The tumor size was measured with a caliper, and the calculation formula was: […].
Two kinds of colon cancer models, COLO-205 and HT-29, were used to test the anti-tumor activity of the TRAIL variant in the athymic nude mice. Because COLO-205 colon cancer cells were sensitive to TRAIL, the therapeutic effect of separate use of TRAIL and TRAIL variant was assessed on this model. On the 8th day after the nude mice were inoculated with tumor cells, administration of drugs through the tail vein began for ten days in succession. The mice were divided into four groups; 100 μg TRAIL variant group, 20 μg TRAIL variant group, 100 μg wild-type TRAIL group, and PBS control group. […] Moreover, the TRAIL variant's inhibition of tumor growth was dose-dependent.
The invention also provides the anti-tumor effect of combined use of TRAIL variant and chemotherapeutic drug CPT-11. Protein injection was carried out by intraperitoneal injection once a day for TRAIL or TRAIL variant, for two weeks total, and intravenous injection once every two days from CPT-11 via tail veins, seven times in total. […] This effect was even better than the higher dose of the TRAIL+CPT-11 combined treatment group ([…]) (89%, P=0.001, 36 days).

A further series concerns HT-29 colon cancer cells. Briefly: Anti-tumor efficacy on HT-29 colon cancer model. The settings on record: TRAIL-insensitive HT-29 model. The series is classed as in vivo, nude mice. How it is done:
as §3
The invention also provides the anti-tumor effect of combined use of TRAIL variant and chemotherapeutic drug CPT-11. Protein injection was carried out by intraperitoneal injection once a day for TRAIL or TRAIL variant, for two weeks total, and intravenous injection once every two days from CPT-11 via tail veins, seven times in total. […]

For the next series, the system named is COLO-205 tumor tissues. Briefly: Drug distribution test of 125I-labeled recombinant proteins in tumor tissues. The series is classed as in vivo. The settings on record: COLO-205 tumor-bearing nude mice, 240 minutes after injection. How it is done:
Separate injection from tail veins of 100 μl containing […] of 125I-labeled human TRAIL or its variant protein into the COLO-205 tumor bearing nude mice. 5, 30, 60, 120 and 240 minutes after injection, the tumor tissues were peeled off separately and weighed, and the radiation amount of the tumor tissues were measured with a liquid scintillation counter. The amount of radiation in the tumor tissues is represented by the percentage of measuring radiation quantity per gram of tissues and the injected radiation quantity (% ID/g). The results are the average value of three independent tests.
The recombinant TRAIL and the TRAIL variant protein were labeled with a radioisotope of iodine (^125I) using a labeling kit (Pierce Corp.). The labeling results were as follows: the specific activity of ^125I-TRAIL was 7.86 μCi/μg protein, and the specific activity of ^125I-TRAIL variant was 7.49 μCi/μg protein. After the nude mice were inoculated with COLO-205 colon cancer, and when the tumor size reached 400-500 mm3, they were randomly grouped into wild-type and variant group. Each group included five time points: 5 min, 30 min, 60 min, 120 min and 240 min, and each time point included three animals. […] At each time point, the mice were sacrificed, the tumors were dissected by surgery, and the radiation dose was measured through a liquid scintillation counter. […]

Series [7] relates to FADD−/− deficient Jurkat cells. The experiment in a line: Apoptosis induction in FADD-/- deficient Jurkat cells.
Excerpt: (§4) The fluorescence detection method was used to test the activity of Caspase-8 and Caspase-3 in the Jurkat cells after treatment of TRAIL and TRAIL variants.
Series [8] concerns Caspase-8−/− deficient Jurkat cells. The experiment in a line: Apoptosis induction in Caspase-8-/- deficient Jurkat cells.
Excerpt: as §4

We go through two compounds from US9340596B2, “Fusion protein comprising tumor necrosis factor related apoptosis inducing ligand and integrin ligand and use thereof” (NANJING UNIVERSITY, priority 2007, dated 2016).

Turning to “TRAIL: recombinant wild-type human tumor necrosis factor-related apoptosis-inducing ligand, comparator”, the “reduction by free protein of endothelial cells adhered to microplates coated with RGD-L-TRAIL (competitive test)” value in [1] (free protein added to plates coated with TRAIL variant protein) is recorded as “has no such ability”. In addition, the “adhesion of human foreskin microvascular endothelial cells to culture plate wells coated with the protein” value in series [1] (protein coated on 96-well plate, cells incubated 1.5 hours) is “do not adhere”. Further, the “binding capacity with human foreskin microvascular endothelial cells” value in [2] is listed as “very weak”. For the same compound, the medial lethal dose is 3.5 ng/mL in series [3] (COLO-205), 6.7 ng/mL in the series with Jurkat T lymphoma cells and 2.3 ng/mL in series [4]. In addition, the apoptosis rate in [3] (COLO-205 cells, 2.43 ng/ml) was 43.7%. Besides, the cell toxicity entry (in [5]; in the series on 293T kidney cells; in the series on primary liver cells) was “No obvious cell toxicity” throughout. Further, the tumor inhibition rate was 67.8% in [6] (COLO-205, 90 μg/day/each combined with CPT-11 6.25 mg/kg/each, 36 days) and 37% in series [6] (COLO-205, 100 μg, used alone, ten days in succession, 37th day, vs PBS control). In addition, the “mice whose tumors disappeared, among ten animals” value in [6] (COLO-205, 270 μg/day/each + CPT-11 combined treatment) turned out to be 6 mice. Besides, the tumor inhibition effect in [6] (COLO-205, 270 μg/day/each combined with CPT-11 6.25 mg/kg/each, 36 days) amounted to 89%. In series [6] (COLO-205 models, combined treatment program with CPT-11), the “dose required for the same therapeutic effect, relative to TRAIL variant” value is recorded as 3-9 times. Also, the “dose required, relative to TRAIL variant” value in the series on HT-29 colon cancer cells is on record as “at least 2 times”. Further, the “distribution in the tumor tissues” value in the series with COLO-205 tumor tissues is listed as “difficult to detect”. The “induction of cell apoptosis” value in [7] and in series [8] was “no induced cell apoptosis” throughout.
For `CCc1c2c(nc3ccc(OC(=O)N4CCC(N5CCCCC5)CC4)cc13)-c1cc3c(c(=O)n1C2)COC(=O)[C@]3(O)CC` [CPT-11, reference compound], the “tumor growth inhibition (in words)” value in series [6] (COLO-205, individual injection of low dose CPT-11 (6.25 mg/kg/each), vs PBS control) is “slightly inhibit the tumor growth”.
